Measurements taken from patent US20230085307A1, “PYRIDAZINONE COMPOUND AND HERBICIDE” (NISSAN CHEMICAL CORPORATION, priority 2019, published 2023).

How the values were obtained:
barnyard grass [1] = test: Test Example 4: herbicidal effect by soil treatment (Table 19, symbol H); type: in vivo, barnyard grass (Echinochloa crus-galli); settings: amount of applied herbicide 320 g/ha
Outline: (§1)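 Three weeks of greenhouse growth at 25° C. to 30° C. followed a uniform surface spray of water-diluted emulsion at a predetermined herbicide amount. Seeds had been sown beforehand under about 1.5 cm of sterilized diluvial soil. Grading followed criteria set out in an earlier test.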

barnyard grass [2] = test: Test Example 3: herbicidal effect by foliage application, Wagner pot (Table 18, symbol H); type: in vivo, barnyard grass (Echinochloa crus-galli); settings: 320 g/ha
Outline: (§2)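 Plants were sown in alluvial soil held under 0.1–0.5 cm standing water and grown 14 days in a greenhouse at 25–30 °C. An emulsifiable formulation, water-diluted to the set dose, was then sprayed onto the foliage, and effects were scored three weeks later using previously defined criteria.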

velvetleaf [3] = test: Test Example 5: herbicidal effect by foliage application, plastic box (Table 20, symbol M); type: in vivo, velvetleaf (Abutilon theophrasti); settings: foliage application, 320 g/ha, three weeks after application
Outline: (§3)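 Plants sown in sterilized diluvial soil and grown 14 days in a greenhouse at 25° C to 30° C, then sprayed on the foliage with the compound's emulsion diluted in water to a predetermined herbicide amount. Injury to weeds and crops scored three weeks after application on a visual rating scale.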

chickweed [4] = test: Test Example 5: herbicidal effect by foliage application, plastic box (Table 20, symbol P); type: in vivo, common chickweed (Stellaria media); settings: foliage application, 320 g/ha, three weeks after application
Outline: as §3

Italian ryegrass [5] = test: Test Example 5: herbicidal effect by foliage application, plastic box (Table 20, symbol K); type: in vivo, Italian ryegrass (Lolium multiflorum); settings: foliage application, 320 g/ha, three weeks after application
Outline: as §3

persian speedwell [6] = test: Test Example 4: herbicidal effect by soil treatment (Table 19, symbol R); type: in vivo, Persian speedwell (Veronica persica); settings: amount of applied herbicide 320 g/ha
Outline: as §1

false cleavers [7] = test: Test Example 5: herbicidal effect by foliage application, plastic box (Table 20, symbol Q); type: in vivo, false cleavers (Galium spurium); settings: foliage application, 320 g/ha, three weeks after application
Outline: as §3

chickweed [8] = test: Test Example 4: herbicidal effect by soil treatment (Table 19, symbol P); type: in vivo, common chickweed (Stellaria media); settings: amount of applied herbicide 320 g/ha
Outline: as §1

southern crabgrass [9] = test: Test Example 5: herbicidal effect by foliage application, plastic box (Table 20, symbol F); type: in vivo, southern crabgrass (Digitaria ciliaris); settings: foliage application, 320 g/ha, three weeks after application
Outline: as §3

barnyard grass [10] = test: Test Example 5: herbicidal effect by foliage application, plastic box (Table 20, symbol H); type: in vivo, barnyard grass (Echinochloa crus-galli); settings: foliage application, 320 g/ha, three weeks after application
Outline: as §3

green foxtail [11] = test: Test Example 5: herbicidal effect by foliage application, plastic box (Table 20, symbol G); type: in vivo, green foxtail (Setaria viridis); settings: foliage application, 320 g/ha, three weeks after application
Outline: as §3

wild oat [12] = test: Test Example 5: herbicidal effect by foliage application, plastic box (Table 20, symbol I); type: in vivo, wild oat (Avena fatua); settings: foliage application, 320 g/ha, three weeks after application
Outline: as §3

persian speedwell [13] = test: Test Example 5: herbicidal effect by foliage application, plastic box (Table 20, symbol R); type: in vivo, Persian speedwell (Veronica persica); settings: foliage application, 320 g/ha, three weeks after application
Outline: as §3

false cleavers [14] = test: Test Example 4: herbicidal effect by soil treatment (Table 19, symbol Q); type: in vivo, false cleavers (Galium spurium); settings: amount of applied herbicide 320 g/ha
Outline: as §1

redroot pigweed [15] = test: Test Example 5: herbicidal effect by foliage application, plastic box (Table 20, symbol N); type: in vivo, redroot pigweed (Amaranthus retroflexus); settings: foliage application, 320 g/ha, three weeks after application
Outline: as §3

redroot pigweed [16] = test: Test Example 4: herbicidal effect by soil treatment (Table 19, symbol N); type: in vivo, redroot pigweed (Amaranthus retroflexus); settings: amount of applied herbicide 320 g/ha
Outline: as §1

lambsquarters [17] = test: Test Example 4: herbicidal effect by soil treatment (Table 19, symbol O); type: in vivo, lambsquarters (Chenopodium album); settings: amount of applied herbicide 320 g/ha
Outline: as §1

Italian ryegrass [18] = test: Test Example 4: herbicidal effect by soil treatment (Table 19, symbol K); type: in vivo, Italian ryegrass (Lolium multiflorum); settings: amount of applied herbicide 320 g/ha
Outline: as §1

velvetleaf [19] = test: Test Example 4: herbicidal effect by soil treatment (Table 19, symbol M); type: in vivo, velvetleaf (Abutilon theophrasti); settings: amount of applied herbicide 320 g/ha
Outline: as §1

wild oat [20] = test: Test Example 4: herbicidal effect by soil treatment (Table 19, symbol I); type: in vivo, wild oat (Avena fatua); settings: amount of applied herbicide 320 g/ha
Outline: as §1

blackgrass = test: Test Example 5: herbicidal effect by foliage application, plastic box (Table 20, symbol J); type: in vivo, blackgrass (Alopecurus myosuroides); settings: foliage application, 320 g/ha, three weeks after application
Outline: as §3

green foxtail [21] = test: Test Example 4: herbicidal effect by soil treatment (Table 19, symbol G); type: in vivo, green foxtail (Setaria viridis); settings: amount of applied herbicide 320 g/ha
Outline: as §1

southern crabgrass [22] = test: Test Example 4: herbicidal effect by soil treatment (Table 19, symbol F); type: in vivo, southern crabgrass (Digitaria ciliaris); settings: amount of applied herbicide 320 g/ha
Outline: as §1

Chinese sprangletop = test: Test Example 3: herbicidal effect by foliage application, Wagner pot (Table 18, symbol D); type: in vivo, chinese sprangletop (Leptochloa chinensis); settings: 320 g/ha
Outline: as §2

rice flat sedge = test: Test Example 3: herbicidal effect by foliage application, Wagner pot (Table 18, symbol E); type: in vivo, rice flat sedge (Cyperus iria); settings: 320 g/ha
Outline: as §2

lambsquarters [23] = test: Test Example 5: herbicidal effect by foliage application, plastic box (Table 20, symbol O); type: in vivo, lambsquarters (Chenopodium album); settings: foliage application, 320 g/ha, three weeks after application
Outline: as §3

windgrass [24] = test: Test Example 4: herbicidal effect by soil treatment (Table 19, symbol L); type: in vivo, windgrass (Apera spica-venti); settings: amount of applied herbicide 320 g/ha
Outline: as §1

windgrass [25] = test: Test Example 5: herbicidal effect by foliage application, plastic box (Table 20, symbol L); type: in vivo, windgrass (Apera spica-venti); settings: foliage application, 320 g/ha, three weeks after application
Outline: as §3

COc1ccc2c(-c3c(O)c(C)nn(C)c3=O)c(-c3ccccc3)sc2c1 [3-061]
H: barnyard grass, herbicidal effect grade (barnyard grass [1]): 3 (Herbicidal rate of 40% or more and less than 70%) | herbicidal effect on barnyard grass (H) (barnyard grass [2]): 2 (Herbicidal rate of 20% or more and less than 40%) | M: velvetleaf, herbicidal effect grade (velvetleaf [3]): 5 (Herbicidal rate of 90% or more (almost completely withered)) | P: chickweed, herbicidal effect grade (chickweed [4]): 5 (Herbicidal rate of 90% or more (almost completely withered)) | K: Italian ryegrass, herbicidal effect grade (Italian ryegrass [5]): 3 (Herbicidal rate of 40% or more and less than 70%) | R: persian speedwell, herbicidal effect grade (persian speedwell [6]): 4 (Herbicidal rate of 70% or more and less than 90%) | Q: false cleavers, herbicidal effect grade (false cleavers [7]): 4 (Herbicidal rate of 70% or more and less than 90%) | P: chickweed, herbicidal effect grade (chickweed [8]): 3 (Herbicidal rate of 40% or more and less than 70%) | F: southern crabgrass, herbicidal effect grade (southern crabgrass [9]): 0 (Herbicidal rate of 5% or less (almost no effect)) | H: barnyard grass, herbicidal effect grade (barnyard grass [10]): 0 (Herbicidal rate of 5% or less (almost no effect)) | G: green foxtail, herbicidal effect grade (green foxtail [11]): 0 (Herbicidal rate of 5% or less (almost no effect)) | I: wild oat, herbicidal effect grade (wild oat [12]): 4 (Herbicidal rate of 70% or more and less than 90%) | R: persian speedwell, herbicidal effect grade (persian speedwell [13]): 5 (Herbicidal rate of 90% or more (almost completely withered)) | Q: false cleavers, herbicidal effect grade (false cleavers [14]): 2 (Herbicidal rate of 20% or more and less than 40%) | N: redroot pigweed, herbicidal effect grade (redroot pigweed [15]): 4 (Herbicidal rate of 70% or more and less than 90%) | N: redroot pigweed, herbicidal effect grade (redroot pigweed [16]): 0 (Herbicidal rate of 5% or less (almost no effect)) | O: lambsquarters, herbicidal effect grade (lambsquarters [17]): 2 (Herbicidal rate of 20% or more and less than 40%) | K: Italian ryegrass, herbicidal effect grade (Italian ryegrass [18]): 0 (Herbicidal rate of 5% or less (almost no effect)) | M: velvetleaf, herbicidal effect grade (velvetleaf [19]): 0 (Herbicidal rate of 5% or less (almost no effect)) | I: wild oat, herbicidal effect grade (wild oat [20]): 2 (Herbicidal rate of 20% or more and less than 40%) | J: blackgrass, herbicidal effect grade (blackgrass): 3 (Herbicidal rate of 40% or more and less than 70%) | G: green foxtail, herbicidal effect grade (green foxtail [21]): 4 (Herbicidal rate of 70% or more and less than 90%) | F: southern crabgrass, herbicidal effect grade (southern crabgrass [22]): 0 (Herbicidal rate of 5% or less (almost no effect)) | herbicidal effect on Chinese sprangletop (D) (Chinese sprangletop): 3 (Herbicidal rate of 40% or more and less than 70%) | herbicidal effect on rice flat sedge (E) (rice flat sedge): 5 (Herbicidal rate of 90% or more (almost completely withered)) | O: lambsquarters, herbicidal effect grade (lambsquarters [23]): 4 (Herbicidal rate of 70% or more and less than 90%) | L: windgrass, herbicidal effect grade (windgrass [24]): 0 (Herbicidal rate of 5% or less (almost no effect)) | L: windgrass, herbicidal effect grade (windgrass [25]): 3 (Herbicidal rate of 40% or more and less than 70%)
